The results in this text go back to ChEMBL document CHEMBL1221175, “Purmorphamine activates the Hedgehog pathway by targeting Smoothened” (Nat Chem Biol, 2006).

The target of experiment [1] is Sonic hedgehog protein (Mus musculus) (UniProt Q62226). As to the kind of experiment: Activation of Shh in mouse Shh Light2 cells assessed as […] at 1 uM after 30 hrs by luciferase reporter gene assay in presence of 1000 to 10000 nM 3-keto-N-aminoethyl-N'-aminocaproyldihydrocinnamoyl cyclopamine. The following applies: Shh Light II. The class given is functional, cell-based.

Experiment [2] has the same target. As to the kind of experiment: Activation of Shh in mouse Shh Light2 cells assessed as […] at 10 uM after 30 hrs by luciferase reporter gene assay in presence of 1000 to 10000 nM 3-keto-N-aminoethyl-N'-aminocaproyldihydrocinnamoyl cyclopamine. The class given is functional, cell-based. The following applies: Shh Light II. (In general: A reporter such as luciferase makes a cellular process visible.)

The target is the same in experiment [3]. In words: Activation of Shh in ptch1 gene-deficient MEF assessed as beta-galactosidase activity after 30 hrs by chemiluminescence assay in presence of 100 nM 3-keto-N-aminoethyl-N'-aminocaproyldihydrocinnamoyl cyclopamine.
For experiment [4] the target is unchanged. In words: Activation of Shh in mouse Shh Light2 cells assessed as […] after 30 hrs by luciferase reporter gene assay in presence of 100 nM 3-keto-N-aminoethyl-N'-aminocaproyldihydrocinnamoyl cyclopamine. The class given is functional, cell-based. The following applies: Shh Light II.
Experiment [5] has the same target. In words: Activation of Shh in smo gene-deficient MEF at 0.5 uM after 30 hrs by luciferase reporter assay.
The target is the same in experiment [6]. In words: Activation of Shh in smo-expressing MEF at 0.5 uM after 30 hrs by luciferase reporter assay.
In experiment [7] the target is T1, Protein smoothened (Homo sapiens, UniProt Q99835). As to the kind of experiment: Inhibition of BODIPY-cyclopamine binding to Smo expressed in HEK293T cells after 1 hr by fluorescence microscopy.
Experiment [8] concerns the target T1, Protein smoothened. The following applies: HEK-293T; 5 uM.
Description: Inhibition of BODIPY-cyclopamine binding to Smo N-terminal cysteine domain expressed in HEK293T cells at 5 uM after 4 hrs by fluorescence microscopy
For experiment [9], the target named is T1, Protein smoothened. The following applies: HEK-293T; 5 uM. This is another data set of the same source.
Description: Inhibition of BODIPY-cyclopamine binding to Smo C-terminal cytoplasmic domain expressed in HEK293T cells at 5 uM after 4 hrs by fluorescence microscopy

Calls of active or inactive are those of the source. The rule behind the calls is not given here.

T1 sequence (Q99835 whole entry): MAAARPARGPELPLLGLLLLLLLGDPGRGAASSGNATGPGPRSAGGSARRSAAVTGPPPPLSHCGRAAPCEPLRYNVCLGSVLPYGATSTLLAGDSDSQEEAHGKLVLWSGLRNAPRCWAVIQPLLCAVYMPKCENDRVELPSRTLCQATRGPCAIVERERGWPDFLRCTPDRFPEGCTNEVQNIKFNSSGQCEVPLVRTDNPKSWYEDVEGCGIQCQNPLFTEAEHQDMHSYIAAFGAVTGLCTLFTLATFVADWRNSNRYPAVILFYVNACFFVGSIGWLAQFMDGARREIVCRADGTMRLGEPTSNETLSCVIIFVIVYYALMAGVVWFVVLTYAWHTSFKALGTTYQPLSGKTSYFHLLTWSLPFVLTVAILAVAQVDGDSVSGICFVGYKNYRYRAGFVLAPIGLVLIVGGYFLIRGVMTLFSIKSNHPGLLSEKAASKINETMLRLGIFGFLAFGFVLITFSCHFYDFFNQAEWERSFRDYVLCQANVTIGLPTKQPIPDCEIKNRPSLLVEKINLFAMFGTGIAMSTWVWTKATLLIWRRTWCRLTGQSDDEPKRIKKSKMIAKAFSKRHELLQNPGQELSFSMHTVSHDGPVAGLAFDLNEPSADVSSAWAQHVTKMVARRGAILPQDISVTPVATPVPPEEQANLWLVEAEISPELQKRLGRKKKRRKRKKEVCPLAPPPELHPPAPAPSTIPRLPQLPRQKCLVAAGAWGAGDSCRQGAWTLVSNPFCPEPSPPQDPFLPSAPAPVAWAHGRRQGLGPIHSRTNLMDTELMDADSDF

In the case of `CC1=C2C[C@H]3[C@@H](CC=C4CC(=O)CC[C@@]43C)[C@@H]2CC[C@]12O[C@@H]1C[C@H](C)CN(CCNC(=O)CCCCCNC(=O)CCc3ccccc3)[C@H]1[C@H]2C`, the outcome in experiment [1] and in experiment [2] was Active.

Take `CC1=C2C[C@H]3[C@@H](CC=C4C[C@@H](O)CC[C@@]43C)[C@@H]2CC[C@]12O[C@@H]1C[C@H](C)CN[C@H]1[C@H]2C`: the outcome in experiment [3] was Active.

For `CN[C@H]1CC[C@H](N(Cc2cccc(-c3ccncc3)c2)C(=O)c2sc3ccccc3c2Cl)CC1`, the result in experiment [3] was Active.

As to `c1ccc2c(Oc3nc(Nc4ccc(N5CCOCC5)cc4)c4ncn(C5CCCCC5)c4n3)cccc2c1` [PURMORPHAMINE], the result in experiment [3], in [4] and in [6] was Active. Further, the result in experiment [5] was inactive. Further, the IC50 in experiment [7] came to 1500 nM. For the same compound, the inhibition entry in experiment [8] and in [9] was “Active” throughout.

By IC50 is commonly meant the concentration that inhibits the measured activity by half.
